From patent US20070293486A1, “Alpha-Keto Carbonyl Calpain Inhibitors” (SANTHERA PHARMACEUTICALS (SCHWEIZ) AG, priority 2004, published 2007)

System: Primary fibroblasts from donors with Friedreich Ataxia (FRDA)
Assay: BSO Assay (cell viability under BSO-induced oxidative stress)
Type: cell-based
Conditions: Homo sapiens, Fibroblast
Procedure: Primary fibroblasts were derived from donors with molecular diagnosis for Friedreich Ataxia (FRDA) and control donors with no mitochondrial disease. Cell lines were obtained from Coriell Cell Repositories (Camden, N.J.; catalog numbers GM04078, GM08402 and GM08399 respectively). All cell types were diagnosed on the molecular level for intronic […] triplet repeat length of at least 400-450 repeats using a PCR-based method. […] Cell viability was measured after the first signs of toxicity appeared in the BSO-treated controls (typically after 16 to 48 h). […] Fluorescence intensity was measured with a Gemini Spectramax XS spectrofluorimeter (Molecular Devices, Sunnyvale, Calif.) using excitation and emission wavelengths of 485 nm and 525 nm respectively.

For `CCNC(=O)C(=O)[C@H](Cc1ccc(Cl)cc1)NC(=O)[C@@H](NC(=O)[C@H](Cc1ccccc1)NC(=O)CCCCC1CCS[S+]1[O-])C(C)C` (stereo partly shown) [Example 2], the EC50 was 800 nM.
